# Test results as given in the OPERA property sets (Mansouri et al. 2018).
# Details: 20 °C
row,Structure (SMILES),solubility [µM]
1,C=CCNC(=O)CN(CC=C)C(=O)C(Cl)Cl,91300
2,CCc1cccc(C)c1N(COC(C)C)C(=O)CCl,648
3,CC#Cc1cc(C)nc(Nc2ccccc2)n1,13.9
4,CCCCCCC(C)OC(=O)COc1nc(F)c(Cl)c(N)c1Cl (stereo not given),0.245
5,ClC1=C(Cl)C(Cl)(C2(Cl)C(Cl)=C(Cl)C(Cl)=C2Cl)C(Cl)=C1Cl,0.0527
6,CNC(=O)Oc1cc(C)c(SC)c(C)c1,72.9
7,CNC(=O)Oc1ccccc1OC(CCl)OC (stereo not given),5010
8,"CC(C)(C)[C@@H](O)[C@@H](Cc1ccc(Cl)cc1)n1cncn1 (single isomer, unassigned)",103
9,CC(Oc1ccc(Oc2cnc3cc(Cl)ccc3n2)cc1)C(=O)O (stereo not given),0.87
10,Cc1ccccc1C(=O)Nc1cccc(OC(C)C)c1,47.2
11,CCCCOC(=O)C1(O)c2ccccc2-c2ccccc21,129
12,Cc1nn(C)c(OCC(=O)c2ccccc2)c1C(=O)c1ccc(Cl)cc1Cl,2230
13,NCCO.O=C(Nc1ccc([N+](=O)[O-])cc1Cl)c1cc(Cl)ccc1O,258
14,O=C(O)CCCc1c[nH]c2ccccc12,1230
15,CCNC(=O)C(C)OC(=O)Nc1ccccc1 (stereo not given),14800
16,CCCSP(=O)(OCC)Oc1cnn(-c2ccc(Cl)cc2)c1 (stereo not given),91.5
17,CCN(C(=O)SCc1ccccc1)C(C)C(C)C (stereo not given),18.5
18,CC(C)C(O)(c1ccc(OC(F)(F)F)cc1)c1cncnc1 (stereo not given),365
19,CSc1nnc(C(C)(C)C)c(=O)n1N,5280
20,CCC(C)c1ccccc1OC(=O)NC (stereo not given),3180
21,CCOP(=O)(Oc1ccc(Cl)cc1Cl)Oc1ccc(Cl)cc1Cl,1.68
22,CC1COc2ccccc2N1C(=O)C(Cl)Cl (stereo not given),76.9
23,CN(C)S(=O)(=O)N(SC(F)(Cl)Cl)c1ccccc1,3.9
24,CCOC(=O)c1cnn(C)c1S(=O)(=O)NC(=O)Nc1nc(OC)cc(OC)n1,35
25,CNC(=O)Oc1ccc(C)c(C)c1,7250
26,CNC(=O)O/N=C(\C)C(C)S(C)(=O)=O (stereo not given),940000

# Same assay, conditions: 22 °C
row,Structure (SMILES),solubility [µM]
1,CC(C)c1ccc(NC(=O)N(C)C)cc1,291

# Same assay, conditions: 23 °C
row,solubility [µM],Structure (SMILES)
1,93.1,CCN(CC)C(=O)SCc1ccccc1Cl

# Same assay, conditions: 24 °C
row,solubility [µM],Structure (SMILES)
1,943,CCOC(=O)Cc1[nH]nc2ccc(Cl)cc12

# Same assay, conditions: 25 °C
row,Structure (SMILES),solubility [µM]
1,COP(=S)(OC)Oc1c(Cl)cc(C)cc1Cl,2.2
2,Cc1c(Cl)ccc(OC(C)C(O)=Nc2ccccc2)c1Cl (stereo not given),0.0987
3,CCOc1cc(Oc2ccc(C(F)(F)F)cc2Cl)ccc1[N+](=O)[O-],0.298
4,CON(C)C(=O)Nc1ccc(Oc2ccc3c(c2)OC(C)(OC)CC3(C)C)cc1 (stereo not given),0.999
5,CC(C)(C)C(O)/C(=C\c1ccc(Cl)cc1Cl)n1cncn1 (stereo not given),12.3
6,CCOC(=O)C1(C)OC(=O)N(c2cc(Cl)cc(Cl)c2)C1=O (stereo not given),24.1
7,Cc1ccc(C(=O)COc2c(C(=O)c3ccc(Cl)c(C)c3Cl)c(C)nn2C)cc1,0.301
8,Nc1c(Cl)c(Cl)nc(C(=O)O)c1Cl,1780
9,COCC(C)N(C(=O)CCl)c1c(C)csc1C (stereo not given),4350
10,CCOP(=O)(N=C1SCC(C)S1)OCC (stereo not given),212
11,Cc1cnc(C2=NC(=O)C(C)(C(C)C)N2)c(C(=O)O)c1 (stereo not given),8110
12,CCCCOC(=O)N(C)SN(C)C(=O)Oc1cccc2c1OC(C)(C)C2,27.4
13,CC1(C)CNC(=NN=C(/C=C/c2ccc(C(F)(F)F)cc2)/C=C/c2ccc(C(F)(F)F)cc2)NC1,0.0121
14,CCOP(=S)(NC(C)CC)Oc1cc(C)ccc1[N+](=O)[O-] (stereo not given),16.9
15,N#Cc1c[nH]cc1-c1cccc(Cl)c1Cl,20.2
16,CN(C)NC(=O)CCC(=O)O,624000

row,Structure (SMILES),solubility [µM]
1,O=C1OCc2c(Cl)c(Cl)c(Cl)c(Cl)c21,9.19
2,C#CCC1=C(C)C(OC(=O)C2C(C=C(C)C)C2(C)C)CC1=O (stereo not given),26.6
3,O=c1ccc(=O)[nH][nH]1,53500
4,CC(C)(N=C(O)C(Br)C(C)(C)C)c1ccccc1 (stereo not given),11.3
5,CC(Oc1ccc(Oc2cnc3cc(Cl)ccc3n2)cc1)C(=O)OCC1CCCO1 (stereo not given),9.33
6,CC(C)C1(C)N=C(c2ncccc2C(=O)O)NC1=O (stereo not given),43300
7,COc1ccc(NC(=O)N(C)C)cc1Cl,2620
8,CC1=C(C)S(=O)(=O)CCS1(=O)=O,21900
9,CCCN(CCC)c1c([N+](=O)[O-])cc(C(F)(F)F)c(N)c1[N+](=O)[O-],0.0371
10,O=C(O)CCCOc1ccc(Cl)cc1Cl,213
11,O=C(O)c1cc(Oc2ccc(C(F)(F)F)cc2Cl)ccc1[N+](=O)[O-],332
12,CCC1OCC(COc2ccc(Oc3ccccc3)cc2)O1 (stereo not given),16.3
13,CC(Oc1ccc(Oc2ncc(Cl)cc2Cl)cc1)C(=O)N1CCCO1 (stereo not given),25.6
14,CCCCN(CCCC)SN(C)C(=O)Oc1cccc2c1OC(C)(C)C2,0.788
15,CCn1cc(C(=O)O)c(=O)c2cc3c(cc21)OCO3,12.2
16,COc1nc(NC(C)C)nc(NC(C)C)n1,3330

# Same assay, conditions: 27 °C
row,Structure (SMILES),solubility [µM]
1,CC(Oc1ccc2ccccc2c1)C(O)=Nc1ccccc1 (stereo not given),2.57
2,C/C=C\COCN(C(=O)CCl)c1c(CC)cccc1CC,93.6
3,CN(C)C(=O)C(c1ccccc1)c1ccccc1,1090

# Same assay, conditions: 30 °C
row,solubility [µM],Structure (SMILES)
1,2.95,O=C(Nc1ccc(Cl)cc1C(O)c1ccccc1)c1ccncc1 (stereo not given)

# Same assay, conditions: pH 5.0; 25 °C
row,solubility [µM],Structure (SMILES)
1,0.403,COc1cc(OC)nc(N=C(O)NS(=O)(=O)Nc2ccccc2C(=O)C2CC2)n1

# Same assay, conditions: pH 6.4; 21 °C
row,Structure (SMILES),solubility [µM]
1,O=C(Nc1ccccc1)Nc1ccnc(Cl)c1,157

# Same assay, conditions: pH 6.5; 23 °C
row,solubility [µM],Structure (SMILES)
1,3.1,CCCCOC(=O)C(C)Oc1ccc(Oc2ccc(C(F)(F)F)cn2)cc1 (stereo not given)

# Same assay, conditions: pH 7.0; 20 °C
row,Structure (SMILES),solubility [µM]
1,OC(Cn1cncn1)(c1ccc(F)cc1)c1ccccc1F (stereo not given),431

# Same assay, conditions: pH 7.0; 25 °C
row,Structure (SMILES),solubility [µM]
1,OC(c1ccc(F)cc1)(c1cncnc1)c1ccccc1Cl (stereo not given),82.6
